Data on 1 compound can be found in patent US20220175889A1, “NEW DOSAGE REGIMEN FOR INHALED VASOACTIVE INTESTINAL POLYPEPTIDE” (priority 2020, published 2022).

Structures are written as SMILES.

The format of data set [1] is physicochemical. The settings on record: M-neb mobile mesh nebulizer MN-300/9.
For data set [2], the system named is histamine-induced bronchoconstriction. Particulars: single 375 μg inhaled; cited from earlier work.
Data set [3] deals with patients with COVID-19 pulmonary involvement.

Regarding `CC[C@H](C)[C@H](NC(=O)[C@H](CO)NC(=O)[C@H](CC(N)=O)NC(=O)[C@H](CC(C)C)NC(=O)[C@H](Cc1ccc(O)cc1)NC(=O)[C@H](CCCCN)NC(=O)[C@H](CCCCN)NC(=O)[C@@H](NC(=O)[C@H](C)NC(=O)[C@H](CCSC)NC(=O)[C@H](CCC(N)=O)NC(=O)[C@H](CCCCN)NC(=O)[C@H](CCCNC(=N)N)NC(=O)[C@H](CC(C)C)NC(=O)[C@H](CCCNC(=N)N)NC(=O)[C@@H](NC(=O)[C@H](Cc1ccc(O)cc1)NC(=O)[C@H](CC(N)=O)NC(=O)[C@H](CC(=O)O)NC(=O)[C@@H](NC(=O)[C@H](Cc1ccccc1)NC(=O)[C@@H](NC(=O)[C@H](C)NC(=O)[C@H](CC(=O)O)NC(=O)[C@H](CO)NC(=O)[C@@H](N)Cc1c[nH]cn1)C(C)C)[C@@H](C)O)[C@@H](C)O)C(C)C)C(=O)N[C@@H](CC(C)C)C(=O)N[C@@H](CC(N)=O)C(N)=O` [Aviptadil], the “Mass Median Aerodynamic Diameter” value in data set [1] is listed as 4±0.16 μm. In data set [2], the “Protection against histamine-induced bronchoconstriction” value was “the activity could not be shown” and the Side effects entry was “no side effects were reported”. In data set [3] (human, in vivo), the Tolerability result is “well tolerated”. Moreover, the “Distribution of AEs (%)” value in data set [3] (share of the 47 adverse events observed in Treatment Group, 16 patients treatment, 13 placebo) is 40.43%. Moreover, the “Entering Intensive Care (%)” value in data set [3] (treatment group, Age >= 60) was found to be 25%.
